Entries after “also recorded” stand apart in the source; their conditions may differ.
Tests used:
[1] = target: T1, integrin GPIIb/IIIa (Homo sapiens, UniProt P05106+P08514); test: Inhibition by elarofiban of platelet aggregation induced by collagen or CRP trimer SEQ ID 25; assay type: cell-based
T1 construct: Washed platelets were incubated with various elarofiban doses; host or cells: washed human platelets from PRP of healthy volunteers

[2] = test system: human platelets; test: Human platelet aggregation assay (washed platelets, optical density 650 nm); assay type: cell-based; conditions: for EC50 ± SEM, platelet aggregation: Table 3
Method: Human platelet-rich plasma (PRP) concentrate from healthy volunteers was purchased from Biological Specialties, Inc. (Colmar, Pa.). […] The PRP was centrifuged at 730 g for 15 min. The resulting platelet pellet was washed twice in CGS buffer (13 mM sodium citrate, 30 mM glucose, 120 mM NaCl, pH 6.5) containing 1 U/mL apyrase (grade V, Sigma-Aldrich) and resuspended in Tyrode's buffer (140 mM NaCl, 2.7 mM KCl, 12 mM NaHCO3, 0.76 mM Na2HPO4, 5.5 mM dextrose, 5.0 mM Hepes, 0.2% BSA, pH 7.4). The “washed” platelets were diluted to 3×10^8 platelets/mL and kept >45 min at 37° C. before use.
For the assay, 105 μL of washed platelets, 2 mM CaCl2 and […] of fibrinogen were added to a 96-well microtiter plate. Platelet aggregation was initiated by the addition of serial concentrations of native collagen fibrils (equine type I; 92% identity with human collagen sequence; Chrono-log Corp., Havertown, Pa.) or test peptides. Buffer was added to one set of control wells. The assay plate was stirred constantly and intermittently placed in a microplate reader (Softmax, Molecular Devices, Menlo Park, Calif.) to read optical density (650 nm) at 0 and 5 min after the addition of the compound solutions. Aggregation was calculated as the decrease in optical density between the time-0 and 5-min measurements and expressed as percent of aggregation.
Peptides were dissolved in PBS (pH 7) or water (final pH 5) to a concentration of 2 mg/mL. Some samples were heated in a water bath (70° C.) for 10 min, filtered through a 0.45-μm filter and incubated for 24 h or 7 days at 4° C.

T1 sequence (P08514 32-887 limits assumed): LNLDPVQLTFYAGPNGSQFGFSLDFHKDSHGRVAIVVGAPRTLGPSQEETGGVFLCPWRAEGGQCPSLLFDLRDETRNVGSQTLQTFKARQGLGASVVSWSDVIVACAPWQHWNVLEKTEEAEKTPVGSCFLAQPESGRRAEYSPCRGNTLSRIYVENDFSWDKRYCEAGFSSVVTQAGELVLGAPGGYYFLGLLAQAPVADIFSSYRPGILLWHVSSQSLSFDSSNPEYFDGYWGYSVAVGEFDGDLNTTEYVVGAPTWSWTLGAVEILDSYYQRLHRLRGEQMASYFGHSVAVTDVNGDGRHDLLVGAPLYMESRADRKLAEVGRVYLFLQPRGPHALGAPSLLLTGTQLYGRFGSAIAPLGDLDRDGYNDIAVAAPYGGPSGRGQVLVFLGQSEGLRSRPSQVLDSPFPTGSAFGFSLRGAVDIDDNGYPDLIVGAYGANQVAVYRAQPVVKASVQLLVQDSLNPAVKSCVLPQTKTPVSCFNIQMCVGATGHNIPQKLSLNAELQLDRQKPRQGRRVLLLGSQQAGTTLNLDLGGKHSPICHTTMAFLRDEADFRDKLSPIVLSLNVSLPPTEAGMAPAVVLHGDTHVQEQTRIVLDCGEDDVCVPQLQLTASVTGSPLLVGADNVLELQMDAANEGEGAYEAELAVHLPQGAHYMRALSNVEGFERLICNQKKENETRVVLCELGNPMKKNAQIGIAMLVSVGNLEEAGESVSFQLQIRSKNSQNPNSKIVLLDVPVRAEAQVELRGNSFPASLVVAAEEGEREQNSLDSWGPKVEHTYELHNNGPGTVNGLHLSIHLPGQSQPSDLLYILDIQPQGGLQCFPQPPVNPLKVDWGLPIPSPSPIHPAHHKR
T1 sequence (P08514 891-1039 partner limits assumed): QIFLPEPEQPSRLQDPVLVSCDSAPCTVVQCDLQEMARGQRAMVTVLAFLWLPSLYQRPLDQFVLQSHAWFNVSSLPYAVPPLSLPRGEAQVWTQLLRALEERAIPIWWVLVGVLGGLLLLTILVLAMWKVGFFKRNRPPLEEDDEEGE
T1 sequence (P05106 27-788): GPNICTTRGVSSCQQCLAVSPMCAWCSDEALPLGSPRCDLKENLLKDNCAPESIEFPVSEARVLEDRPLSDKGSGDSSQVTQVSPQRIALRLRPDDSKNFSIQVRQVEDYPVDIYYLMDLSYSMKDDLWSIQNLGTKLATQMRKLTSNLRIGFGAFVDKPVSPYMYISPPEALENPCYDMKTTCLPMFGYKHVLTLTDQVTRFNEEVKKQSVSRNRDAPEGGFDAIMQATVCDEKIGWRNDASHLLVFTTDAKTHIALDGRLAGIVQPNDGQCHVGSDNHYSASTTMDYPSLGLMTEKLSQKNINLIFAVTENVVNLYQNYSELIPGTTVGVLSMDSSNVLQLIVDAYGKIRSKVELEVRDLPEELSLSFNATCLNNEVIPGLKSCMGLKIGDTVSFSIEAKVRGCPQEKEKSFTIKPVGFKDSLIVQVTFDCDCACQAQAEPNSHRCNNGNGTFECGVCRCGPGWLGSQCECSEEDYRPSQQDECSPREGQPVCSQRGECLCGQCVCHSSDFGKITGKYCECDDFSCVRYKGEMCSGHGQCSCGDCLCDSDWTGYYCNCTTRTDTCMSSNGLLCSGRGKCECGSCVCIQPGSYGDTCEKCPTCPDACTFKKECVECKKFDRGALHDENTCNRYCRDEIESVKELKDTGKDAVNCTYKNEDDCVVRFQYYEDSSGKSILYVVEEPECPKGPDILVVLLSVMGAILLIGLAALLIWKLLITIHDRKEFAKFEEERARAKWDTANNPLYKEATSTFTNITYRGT

O=C(O)C[C@H](NC(=O)[C@@H]1CCCN(C(=O)CCC2CCNCC2)C1)c1cccnc1 [elarofiban]
Inhibition of platelet aggregation induced by the CRP trimer having SEQ ID 25 ([1]; washed platelets incubated with 10, 100 and 1000 nM for 5 min before SEQ ID 25): dose-dependent inhibition
Inhibition of platelet aggregation induced by collagen ([1]; washed platelets incubated with 10, 100 and 1000 nM for 5 min before collagen): dose-dependent inhibition

(Pro-Hyp-Gly)10 [SEQ ID 34]
Stimulation of platelet aggregation (in words) ([2]; Example 6, FIG. 1): not effective
EC50 ± SEM, platelet aggregation ([2]; peptide in PBS, H + F, pH 7, incubation 24 h): failed to aggregate platelets; also recorded: Not Active

Collagen
EC50 values (±SEM), platelet aggregation ([2]; Example 6, FIG. 1, Table 4): 0.56 ± 0.09 µg/mL
EC50 ± SEM, platelet aggregation ([2]; native collagen fibrils (equine type I), no preparation conditions given): 0.25 µg/mL
